# Test results from PMC6792352, “Limited Chemical Structural Diversity Found to Modulate Thyroid Hormone Receptor in the Tox21 Chemical Library” (Environmental Health Perspectives, 2019).
# Read-outs that look alike come from different tables or passages of the source.
# Experiments:
# [1] = test system: thyroid hormone receptor (endogenous TRα and TRβ); experiment: GH3-TRE-Ag primary qHTS, luciferase reporter, agonist mode (TOX21_TR_LUC_GH3_Agonist, aeid 803); assay type: cell-based, rat; conditions: for GH3-TRE-Ag AC50 hitc: hit call from tcpl
# [2] = test system: thyroid hormone receptor (endogenous TRα and TRβ); experiment: GH3-TRE-Ag-Followup confirmation (TOX21_TR_LUC_GH3_Agonist_Followup, aeid 2226); assay type: cell-based, rat; conditions: for GH3-TRE-Ag-Followup hitc: hit call from tcpl; for AC50: read-out: GH3-TRE-Ag-Followup AC50
# human RXRα = target: T1, human RXRα (Homo sapiens, UniProt P19793); experiment: RXRa-bla-Ag mammalian one-hybrid beta-lactamase assay (TOX21_TR_RXR_BLA_Agonist_Followup_ratio, aeid 2253); assay type: cell-based; conditions: for tr-followup-rxr-bla-agonist-1 hitc: hit call from tcpl; for Emax: read-out: EMax (% of Control) tr-followup-rxr-bla-agonist-1
# T1 construct: host or cells: GeneBLAzer UAS-bla HEK 293T
# T1 sequence (P19793 227-458 limits assumed): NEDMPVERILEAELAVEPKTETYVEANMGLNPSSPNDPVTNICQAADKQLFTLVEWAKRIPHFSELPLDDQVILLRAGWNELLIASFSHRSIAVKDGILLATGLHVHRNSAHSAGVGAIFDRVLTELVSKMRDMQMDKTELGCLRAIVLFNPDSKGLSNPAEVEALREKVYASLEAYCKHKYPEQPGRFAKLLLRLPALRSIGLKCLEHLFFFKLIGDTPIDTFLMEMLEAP
# [3] = target: T2, TRα ligand-binding domain (Homo sapiens, UniProt P10827); experiment: TRa-coa LanthaScreen TR-FRET coactivator (SRC-2 peptide) recruitment, agonist (TOX21_TRA_COA_Agonist_Followup_ratio, aeid 2230); assay type: biochemical; conditions: for TRa-coa hitc: hit call from tcpl; for Emax: read-out: EMax (% of Control) tra-coa-agonist-followup-1
# T2 construct: the receptor LBDs expressed as glutathione S-transferase (GST) fusion proteins; purchased
# [4] = test system: Tox21 cell viability assays (different cell types); experiment: Global cytotoxicity: eighteen Tox21 cell viability assays; assay type: cell-based
# [5] = test system: thyroid hormone receptor (TR); experiment: Classification of TR actives across characterization assays (TR-Ag / RXR-Ag; TR model binary); parameters: key to Categorization Code: FP, false positive; conditions: for Categorization Code: TR agonist characterization; for Classification: TR-Ag = TR agonist, RXR-Ag = RXR agonist
# From the text: Active rate comparison between receptors. […]; [Kleinstreuer et al. 2017]). We first removed chemicals classified as pharmaceuticals because these sets of chemicals are biased toward drugs targeting estrogen receptors and androgen receptors. […]. For TR, we cross-referenced these same chemicals for testing against TR and used candidate chemicals in Tables 2 and 3 to define active rates.
# Complete results from both GH3-TRE qHTS agonist, antagonist, and viability mode for the 8,305 compounds are provided in Excel Table S2. […]. […]. Together with some potential false negatives, these chemicals, totaling 84 in all, were screened for activity in a series of assays for confirmation in the GH3-TRE-Ag assay; specificity screening in the TRβ-UAS-bla HEK 293T and RXRα-UAS-bla HEK 293T mammalian one-hybrid assays; viability assays for the HEK293T parental cell line; and orthogonal screening in two TR:coactivator recruitment assays, TRa-coa and TRb-coa. […].
# GH3-TRE-Luc cell line [6] = test system: GH3-TRE-Luc cell line
# [7] = target: T3, human TRβ ligand-binding domain (Homo sapiens, UniProt P10828); experiment: TRb-bla agonist mammalian one-hybrid beta-lactamase assay (TOX21_TRB_BLA_Agonist_Followup_ratio, aeid 2236); assay type: cell-based; parameters: host or cells: GeneBLAzer UAS-bla HEK 293T; conditions: for AC50 / TRb-bla hitc: agonist; for AC50: read-out: TRb-bla AC50; for TRb-bla hitc: hit call from tcpl; for Emax: read-out: EMax (% of Control) trb-bla-agonist-followup-1
# T3 sequence (P10828 217-461 limits assumed): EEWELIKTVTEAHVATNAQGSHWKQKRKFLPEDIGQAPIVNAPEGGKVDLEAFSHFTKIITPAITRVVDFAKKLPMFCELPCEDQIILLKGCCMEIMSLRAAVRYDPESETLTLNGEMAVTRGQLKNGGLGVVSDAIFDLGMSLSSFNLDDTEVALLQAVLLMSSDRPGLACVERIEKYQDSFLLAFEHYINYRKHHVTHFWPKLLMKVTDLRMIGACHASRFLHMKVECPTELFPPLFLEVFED
# [8] = target: T3, human TRβ ligand-binding domain; experiment: TRb-coa LanthaScreen TR-FRET coactivator (SRC-2 peptide) recruitment, agonist (TOX21_TRB_COA_Agonist_Followup_ratio, aeid 2244); assay type: biochemical; parameters: host or cells: GeneBLAzer UAS-bla HEK 293T; conditions: for AC50 / TRb-coa hitc: agonist; for AC50: read-out: TRb-coa AC50; for TRb-coa hitc: hit call from tcpl; for Emax: read-out: EMax (% of Control) trb-coa-agonist-followup-1
# GH3-TRE-Luc cell line [9] = experiment: GH3-TRE-Via cell viability, CellTiter-Fluor (TOX21_TR_LUC_GH3_Antagonist_viability, aeid 805); conditions: for TR_LUC_GH3_Antagonist_viability hitc: hit call from tcpl
# in vitro = conditions: rat, gh3-tre-luc cells
# [10] = read-out: tr-followup-rxr-bla-agonist-1 AC50
# [11] = agonist, read-out: TRa-coa AC50
# [12] = median over Tox21 viability assays
# [13] = Rattus norvegicus, read-out: TR_LUC_GH3_Antagonist_viability AC50 (uM)
# [14] = # active of 18 total Tox21 viability assays
# [15] = read-out: TR_LUC_GH3_Antagonist_viability AC50
# T2 sequence (P10827 163-410 isoform P10827-2 limits assumed, other chains not shown): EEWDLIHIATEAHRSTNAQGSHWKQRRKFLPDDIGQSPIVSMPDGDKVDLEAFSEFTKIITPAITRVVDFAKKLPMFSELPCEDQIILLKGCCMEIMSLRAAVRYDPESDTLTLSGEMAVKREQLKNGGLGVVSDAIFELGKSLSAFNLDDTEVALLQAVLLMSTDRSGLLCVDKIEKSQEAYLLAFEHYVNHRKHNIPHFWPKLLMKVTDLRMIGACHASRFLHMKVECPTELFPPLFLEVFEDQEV
SMILES,EMax (% of Control) gh3-tre-agonist [1],GH3-TRE-Ag AC50 hitc [1],EMax (% of Control) gh3-tre-agonist-followup-1_agonist [2],GH3-TRE-Ag-Followup hitc [2],tr-followup-rxr-bla-agonist-1 hitc (human RXRα),Emax (human RXRα) [%],AC50 (human RXRα; [10]) [µM],"AC50 [3, 11] [µM]",TRa-coa hitc ([3]; agonist),GLOBAL CYTOTOXICITY cytotox.number_Active [4],Categorization Code [5],AC50 [7] [µM],TRb-bla hitc [7],AC50 [8] [µM],TRb-coa hitc [8],AC50 (GH3-TRE-Luc cell line [9]; [13]) [µM],GLOBAL CYTOTOXICITY cytotox.median [4],TR_LUC_GH3_Antagonist_viability hitc (GH3-TRE-Luc cell line [6]),AC50 [2] [µM],EMax (% of Control) tr-followup-rxr-bla-agonist-1 (human RXRα),other results
C[C@H](CCC(=O)NCC(=O)O)[C@H]1CC[C@H]2[C@@H]3[C@H](O)C[C@@H]4C[C@H](O)CC[C@]4(C)[C@H]3C[C@H](O)[C@]12C [glycocholic acid],27.2 % of Control,1,34.6 % of Control,0,0,-1.3,> 92,> 92,0,0,Equivocal RXR-Ag,> 92,0,> 92,0,> 92,,,,,"activity in GH3-TRE agonist assay [1]: active; Emax [3]: -0.137%; GLOBAL CYTOTOXICITY cytotox.median [4, 12]: >92; TR_LUC_GH3_Antagonist_viability hitc (GH3-TRE-Luc cell line [6]; rat, 24 h): 0; Emax [7]: 14.8%; Emax [8]: -0.225%"
"N[C@@H](Cc1cc(I)c(Oc2ccc(O)c(I)c2)c(I)c1)C(=O)[O-].[Na+] [3,3ʹ,5-Triiodo-L-thyronine sodium salt, reference compound]",,1,96.5 % of Control,1,,,,,,0,TR-Ag,,,,,,>92,0,,,TR_LUC_GH3_Agonist_EMAX (% Control) ([1]; Table S5): 108.5 % Control; AC50 [4]: > 92 µM; Classification [5]: TR-Ag; AC50 (GH3-TRE-Luc cell line [6]): > 92 µM
"CC(C)(c1ccccc1)c1ccc(O)c(C(C)(C)c2ccccc2)c1 [2,4-Bis(1-methyl-1-phenylethyl)phenol]",22.3 % of Control,0,33.5 % of Control,1,0,,> 92,> 92,0,,FP,> 92,0,> 92,0,,,,5.35,12.1 % of Control,"EMax (% of Control) tra-coa-agonist-followup-1 [3]: 9.2 % of Control; GLOBAL CYTOTOXICITY cytotox.number_Active [4, 14]: 17; GLOBAL CYTOTOXICITY cytotox.median [4, 12]: 24.3; CC50 at 24 h (in vitro; AC50 (uM) modified / 1000, Tox21_110001=Tox21_202456, viability, 1 nM T3 present, 24 h): 13.3 µM; CC50 at 24 h (in vitro; AC50 (uM) modified / 1000, Tox21_110001=Tox21_300317, viability, 1 nM T3 present, 24 h): 11.2 µM; EMax (% of Control) trb-coa-agonist-followup-1 [8]: 13.4 % of Control; TR_LUC_GH3_Antagonist_viability hitc (GH3-TRE-Luc cell line [9]): 1; AC50 (GH3-TRE-Luc cell line [9]; [15]): 11.2 µM"
"Cc1cc(NC(=O)C(=O)O)cc(C)c1Oc1ccc(O)c2c1CCC2 [CP-634384, reference compound]",129.5 % of Control,1,103.7 % of Control,1,1,,,,1,0,TR-Ag,,,,,,>92,0,,54.9 % of Control,"AC50 ([2]; confirmation, agonist mode): 0.018 µM; AC50 (human RXRα; HEK 293T one-hybrid, agonist mode, inactive set to 1,000, read-out: RXRa-bla-Ag AC50): 44.3 µM; EMax (% of Control) tra-coa-agonist-followup-1 [3]: 158.4 % of Control; AC50 ([3]; cell-free coactivator recruitment, read-out: TRa-coa-Ag AC50): 0.0029 µM; AC50 [4]: > 92 µM; Classification [5]: TR-Ag; AC50 (GH3-TRE-Luc cell line [6]): > 92 µM"
CCCCc1oc2ccccc2c1C(=O)c1cc(I)c(OCCN(CC)CC)c(I)c1 [amiodarone],,,,,,,,,,,,,,,,,,,,,cytotoxicity in GH3 viability assay (GH3-TRE-Luc cell line [6]): cytotoxic at the concentrations at which it inhibits TR
Nc1ccc(S(=O)(=O)Nc2nccs2)cc1 [Sulfathiazole],1.9 % of Control,0,19.5 % of Control,0,0,30,> 92,,,0,FP,,,,,> 92,>92,,,,"AC50 ([1]; read-out: GH3-TRE-Ag AC50): > 92 µM; TR_LUC_GH3_Antagonist_viability hitc (GH3-TRE-Luc cell line [6]; rat, 24 h): 0; CC50 at 24 h (in vitro; AC50 (uM) modified / 1000): > 50 µM"
"N[C@@H](Cc1ccc(Oc2cc(I)c(O)c(I)c2)c(I)c1)C(=O)O [3,3',5'-Triiodo-L-thyronine]",111.6 % of Control,1,87.2 % of Control,1,0,,> 92,,1,0,TR-Ag,,1,,1,,>92,0,0.537,17.4 % of Control,EMax (% of Control) tra-coa-agonist-followup-1 [3]: 152.6 % of Control; EMax (% of Control) trb-bla-agonist-followup-1 [7]: 93.8 % of Control; EMax (% of Control) trb-coa-agonist-followup-1 [8]: 117.6 % of Control; AC50 (GH3-TRE-Luc cell line [9]; [15]): > 92 µM
C=C(NC(=O)C(=C)NC(=O)c1csc(C2=N[C@@H]3c4csc(n4)[C@H]4NC(=O)c5csc(n5)[C@H]([C@](C)(O)[C@@H](C)O)NC(=O)[C@H]5CSC(=N5)/C(=C/C)NC(=O)[C@H]([C@@H](C)O)NC(=O)c5csc(n5)[C@]3(CC2)NC(=O)[C@H](C)NC(=O)C(=C)NC(=O)[C@H](C)NC(=O)[C@H]([C@@H](C)CC)N[C@@H]2C=Cc3c([C@H](C)O)cc(nc3[C@H]2O)C(=O)O[C@@H]4C)n1)C(N)=O [Thiostrepton],15.2 % of Control,0,28.2 % of Control,1,0,17.2,> 92,> 92,0,,About 20% efficacy in RXR and TR; hitc is inconsistent; promiscious NR activity,> 92,0,> 92,0,> 92,>92,,5.47,,"Emax [3]: -0.6%; GLOBAL CYTOTOXICITY cytotox.number_Active [4, 14]: 0; CC50 at 24 h (in vitro; AC50 (uM) modified / 1000): 6.56 µM; Emax [7]: 4.1%; Emax [8]: -0.224%; TR_LUC_GH3_Antagonist_viability hitc (GH3-TRE-Luc cell line [9]): 0"
